≈ marks a conversion by molar mass, not a printed value.
How the values were obtained:
Type in all cases: functional
[1] = system: Mycobacterium tuberculosis; test: Antitubercular activity against Mycobacterium tuberculosis H37Rv ATCC 25618
[2] = system: Mycobacterium tuberculosis; test: Antitubercular activity against Mycobacterium tuberculosis H37Rv ATCC 35838
[3] = system: Mycobacterium tuberculosis; test: Antitubercular activity against Mycobacterium tuberculosis H37Rv ATCC 35822
[4] = system: Mycobacterium tuberculosis; test: Antitubercular activity against Mycobacterium tuberculosis H37Rv ATCC 35837
[5] = system: Mycobacterium tuberculosis; test: Antitubercular activity against Mycobacterium tuberculosis H37Rv ATCC 35820
[6] = system: Mycobacterium tuberculosis; test: Antitubercular activity against Mycobacterium tuberculosis Kurono ATCC 35812
[7] = system: Mycobacterium tuberculosis; test: Antitubercular activity against Mycobacterium tuberculosis XDR
[8] = system: Mycobacterium tuberculosis; test: Antitubercular activity against Mycobacterium tuberculosis by radiometric analysis

C[C@]1(COc2ccc(N3CCC(Oc4ccc(OC(F)(F)F)cc4)CC3)cc2)Cn2cc([N+](=O)[O-])nc2O1 [DELAMANID]
MIC [1]: 0.006 to 0.024 µg/mL (≈ 0.0112 to 0.0449 µM) | MIC [2]: 0.006 to 0.024 µg/mL (≈ 0.0112 to 0.0449 µM) | MIC [3]: 0.006 to 0.024 µg/mL (≈ 0.0112 to 0.0449 µM) | MIC [4]: 0.006 to 0.024 µg/mL (≈ 0.0112 to 0.0449 µM) | MIC [5]: 0.006 to 0.024 µg/mL (≈ 0.0112 to 0.0449 µM) | MIC [6]: 0.006 to 0.024 µg/mL (≈ 0.0112 to 0.0449 µM)

CC(=O)NC[C@H]1CN(c2ccc(N3CCOCC3)c(F)c2)C(=O)O1 [LINEZOLID]
MIC [7]: 0.125 to 0.5 µg/mL (≈ 0.371 to 1.48 µM)

O=[N+]([O-])c1cn2c(n1)OC[C@@H](OCc1ccc(OC(F)(F)F)cc1)C2 [PRETOMANID]
MIC [8]: 0.015 to 0.25 µg/mL (≈ 0.0418 to 0.696 µM)

Source: ChEMBL document CHEMBL4354781, “Drug-resistance in Mycobacterium tuberculosis: where we stand” (2019)
